19 compounds from the Kinase Knowledgebase extract (Sharma et al. 2016) can be followed below.

Where only a bound is given, the exact number is not on record here.

The target in one test is EGFR (UniProt P00533).
In test [1] the target is EGFR (murine) (UniProt P00533). As to conditions: nih3t3/c7.
Test [2] addresses EGFR (murine) (UniProt P00533). As to conditions: 3t3.

Chain of EGFR (murine) (P00533 whole entry, looked up): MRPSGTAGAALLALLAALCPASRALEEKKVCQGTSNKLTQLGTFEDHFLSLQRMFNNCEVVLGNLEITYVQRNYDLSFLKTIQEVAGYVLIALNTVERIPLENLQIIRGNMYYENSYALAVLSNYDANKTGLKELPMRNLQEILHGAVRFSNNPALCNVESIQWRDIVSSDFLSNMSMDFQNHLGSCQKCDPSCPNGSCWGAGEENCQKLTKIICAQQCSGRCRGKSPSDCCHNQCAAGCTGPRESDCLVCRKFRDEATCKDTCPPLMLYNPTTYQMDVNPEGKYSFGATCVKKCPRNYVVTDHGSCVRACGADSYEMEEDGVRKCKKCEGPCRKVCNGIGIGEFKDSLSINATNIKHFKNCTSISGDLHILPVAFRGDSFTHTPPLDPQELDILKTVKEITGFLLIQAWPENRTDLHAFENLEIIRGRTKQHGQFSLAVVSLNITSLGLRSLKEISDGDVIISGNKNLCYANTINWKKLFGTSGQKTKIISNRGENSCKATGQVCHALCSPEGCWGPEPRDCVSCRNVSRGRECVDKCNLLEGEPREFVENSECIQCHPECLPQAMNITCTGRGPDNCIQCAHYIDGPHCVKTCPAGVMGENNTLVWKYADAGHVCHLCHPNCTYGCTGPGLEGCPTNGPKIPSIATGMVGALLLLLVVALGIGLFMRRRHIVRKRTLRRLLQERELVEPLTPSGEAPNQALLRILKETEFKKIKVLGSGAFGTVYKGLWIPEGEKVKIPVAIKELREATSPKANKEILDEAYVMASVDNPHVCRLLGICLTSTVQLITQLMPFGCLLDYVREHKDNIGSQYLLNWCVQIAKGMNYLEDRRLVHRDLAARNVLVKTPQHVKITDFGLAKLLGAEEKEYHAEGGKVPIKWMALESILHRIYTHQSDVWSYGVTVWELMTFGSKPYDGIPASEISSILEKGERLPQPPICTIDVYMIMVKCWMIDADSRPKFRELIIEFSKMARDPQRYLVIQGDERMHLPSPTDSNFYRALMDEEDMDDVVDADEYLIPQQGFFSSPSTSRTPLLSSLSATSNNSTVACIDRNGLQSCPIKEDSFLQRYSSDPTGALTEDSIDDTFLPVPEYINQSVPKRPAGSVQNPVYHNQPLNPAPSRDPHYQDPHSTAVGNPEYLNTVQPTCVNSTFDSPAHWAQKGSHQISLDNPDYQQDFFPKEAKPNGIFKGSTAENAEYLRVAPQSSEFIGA
Chain of EGFR (P00533 whole entry, looked up): as above

For the compound `CN(C)S(=O)(=O)c1ccc2c(c1)/C(=C/c1cc3ccccc3[nH]1)C(=O)N2`, the IC50 on EGFR and in the test with EGFR (murine) [1] was more than 100 µM throughout.

For `CNS(=O)(=O)c1ccc2c(c1)/C(=C/c1c(C)[nH]c3ccccc13)C(=O)N2`, the IC50 against EGFR and in the test with EGFR (murine) [1] was more than 100 µM throughout.

On to `Cc1[nH]c2ccccc2c1/C=C1\C(=O)Nc2ccc(S(N)(=O)=O)cc21`, for which the IC50 against EGFR and in the test with EGFR (murine) [1] was more than 100 µM throughout.

Take `CC(=O)Nc1ccc2c(c1)NC(=O)/C2=C/c1ccc(OCCN2CCOCC2)cc1-c1cccs1`: the 50% inhibitory concentration (IC50) (commonly the concentration needed to halve the response being measured) is 28.6 µM with EGFR (murine) [2], more than 100 µM against EGFR and 79 µM with EGFR (murine) [1].

Turning to `O=C(O)CCc1c(/C=C2\C(=O)Nc3ccc(Br)cc32)[nH]c2c1CCCC2`, the IC50 against EGFR and with EGFR (murine) [1] was more than 100 µM throughout.

In the case of `COc1ccc2c(c1)NC(=O)/C2=C\c1[nH]c2c(c1CCC(=O)O)CCCC2`, the IC50 against EGFR is more than 100 µM.

With `Cc1c[nH]c(/C=C2\C(=O)Nc3cccc(C)c32)c1CCC(=O)O`, at EGFR, the IC50 is more than 100 µM.

For `COc1ccccc1-c1ccc2c(c1)NC(=O)/C2=C\c1[nH]c2c(c1CCC(=O)O)CCCC2`, the IC50 against EGFR and with EGFR (murine) [1] was more than 100 µM each time.

In the case of `CCOC(=O)c1[nH]c(/C=C2\C(=O)Nc3ccccc32)c(CCC(=O)O)c1C`, the IC50 against EGFR is more than 100 µM.

On to `O=C(O)CCc1c(/C=C2\C(=O)Nc3cc(-c4ccccc4)ccc32)[nH]c2c1CCCC2`, for which the IC50 against EGFR and with EGFR (murine) [1] was more than 100 µM each time.

`CN(C)S(=O)(=O)c1ccc2c(c1)/C(=C/c1ccc3[nH]ccc3c1)C(=O)N2`: the IC50 against EGFR and in the test with EGFR (murine) [1] was more than 100 µM each time.

The compound `O=C(O)CCc1c(/C=C2\C(=O)Nc3ccccc32)[nH]c2c1CCCC2` yielded a 50% inhibitory concentration (IC50) against EGFR of more than 100 µM.

On to `Cc1[nH]c2ccccc2c1/C=C1\C(=O)Nc2ccc(S(=O)(=O)N(C)C)cc21`, for which the IC50 at EGFR and with EGFR (murine) [1] was more than 100 µM throughout.

`CN(C)S(=O)(=O)c1ccc2c(c1)/C(=C/c1c[nH]c3ccccc13)C(=O)N2`: the 50% inhibitory concentration (IC50) at EGFR and with EGFR (murine) [1] was more than 100 µM in each case.

For `CNS(=O)(=O)c1ccc2c(c1)/C(=C/c1ccc3[nH]ccc3c1)C(=O)N2`, the IC50 at EGFR and in the test with EGFR (murine) [1] was more than 100 µM each time.

As to `NS(=O)(=O)c1ccc2c(c1)/C(=C/c1ccc3[nH]ccc3c1)C(=O)N2`, the IC50 against EGFR and with EGFR (murine) [1] was more than 100 µM throughout.

`CNS(=O)(=O)c1ccc2c(c1)/C(=C/c1c[nH]c3ccccc13)C(=O)N2`: the 50% inhibitory concentration (IC50) on EGFR and with EGFR (murine) [1] was more than 100 µM each time.

The compound `CCOc1cccc(-c2ccc3c(c2)NC(=O)/C3=C\c2[nH]cc(C)c2CCC(=O)O)c1` returned an IC50 against EGFR of more than 100 µM.

The compound `COc1ccc(-c2ccc3c(c2)NC(=O)/C3=C\c2[nH]c3c(c2CCC(=O)O)CCCC3)cc1` returned an IC50 with EGFR (murine) [1] of more than 100 µM.
